Reference: publication PMC11790914, “Chemogenomics for steroid hormone receptors (NR3)” (Communications Chemistry, 2025)
Values joined by “and” are separate entries in the source; they are usually repeats but may differ in a detail not shown here. Equal values may be shown once.

Assays:
BRPF1 = target: T1, BRPF1 (Homo sapiens, UniProt P55201); test: Liability panel screening by DSF: BRPF1; assay type: binding; conditions: DSF, 20 µM, n=2; for ΔTm at 20 µM: read-out: Mean ΔTM BRPF1
T1 construct: This panel comprised ten highly ligandable kinases and bromodomains; made in house
T1 sequence (P55201 628-732 limits assumed): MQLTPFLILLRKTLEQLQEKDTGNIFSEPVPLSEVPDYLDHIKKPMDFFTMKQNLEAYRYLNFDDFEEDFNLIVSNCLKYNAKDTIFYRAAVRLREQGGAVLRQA
In short: (§1)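 ∆Tm in K was taken from Boltzmann-fitted unfolding inflection points, run in duplicate with a temperature ramp of 3 °C per minute up to 85 °C. Each recombinant protein (2 µM) was in HEPES 10 mM pH 7.5 and NaCl 500 mM, with SYPRO Orange dye at 1:1000.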

ABL1 = target: T2, ABL1 (Homo sapiens, UniProt P00519); test: Liability panel screening by DSF: ABL1; assay type: binding; conditions: DSF, 20 µM, n=2; for ΔTm at 20 µM: read-out: Mean ΔTM ABL1
T2 construct: made in house
In short: as §1

GSK3B = target: T3, GSK3B (Homo sapiens, UniProt P49841); test: Liability panel screening by DSF: GSK3B; assay type: binding; conditions: DSF, 20 µM, n=2; for ΔTm at 20 µM: read-out: Mean ΔTM GSK3B
T3 construct: made in house

HEK293T cells [1] = test: Cytotoxicity: growth-rate (change in confluence over 24 h); conditions: normalized to 0.1% DMSO control, single replicates (n=1...)
MAPK1 = target: T4, MAPK1 (Homo sapiens, UniProt P28482); test: Liability panel screening by DSF: MAPK1; assay type: binding; conditions: DSF, 20 µM, n=2; for ΔTm at 20 µM: read-out: Mean ΔTM MAPK1
T4 construct: made in house
In short: as §1

CDK2 = target: T5, CDK2 (Homo sapiens, UniProt P24941); test: Liability panel screening by DSF: CDK2; assay type: binding; conditions: DSF, 20 µM, n=2; for ΔTm at 20 µM: read-out: Mean ΔTM CDK2
T5 construct: made in house
In short: as §1

HEK293T cells [2] = test: Cytotoxicity: apoptosis induction (caspase-3/7 DEVD fluorogenic DNA dye); conditions: for Apoptosis induction [AI]: single replicates
Method: Cells were incubated with the test compounds at the indicated concentrations solubilized with 0.1% DMSO for 24 h. Growth-rate was determined based on the change in confluence over 24 h normalized to the change in confluence of cells treated with the 0.1% DMSO control (n = 10). Metabolic activity was determined with a water-soluble tetrazolium-8 (WST-8) assay (n = 8) after 24 h treatment. Apoptotic cells were detected with a fluorogenic DNA dye coupled to the caspase-3/7 recognition sequence (DEVD) after 24 h treatment and the apoptotic cell count was normalized to 0.1% DMSO treated cells (n = 6).
HEK293T cells (German Collection of Microorganisms and Cell Culture GmbH, DSMZ; #ACC305) were cultured in DMEM high glucose, supplemented with 10% fetal calf serum (FCS), sodium pyruvate (1 mM), penicillin (100 µ/mL) and streptomycin (100 µg/mL) at 37 °C and 5% (v/v) CO2, and seeded in pre-coated (10 µg/mL collagen G solution (Merck KgaA; #L7213) for 30 min at 37 °C) 96-well plates (2 × 10^5 cells per well). After 24 h, the cells were treated with the respective NR3 CG compound candidate at the recommended concentration, bexarotene (100 µM) or doxorubicin (30 µM) as positive controls in DMEM high glucose supplemented with 0.1% FCS, penicillin (100 µ/mL), streptomycin (100 µg/mL) and 0.1% DMSO, or 0.1% DMSO alone as an untreated control. Each sample was prepared in at least four biologically independent replicates. […] Thereafter, the medium was aspirated and the cells were incubated for 3 h with 90 µL DMEM high glucose supplemented with 0.2% FCS, penicillin (100 µ/mL) and streptomycin (100 µg/mL) and additionally containing 10 µL Cell Counting Kit 8 solution (CCK-8; MedChemExpress, Monmouth Junction, New York, USA; #HY-K0301), and absorbance was measured at 1 h, 2 h and 3 h of incubation at 450 nm on a Tecan Spark Cyto to assess metabolic activity of the cells. Before drug administration, after the first medium exchange, 24 h after drug administration, and after fluorescence imaging cell confluence was assessed using the Tecan Spark Cyto, to account for changes in cell confluence due to drug administration and cell handling. Compound effects on cell confluence, apoptosis, metabolic activity and necrosis were normalized to the vehicle control of each biological replicate individually.

CSNK1D = target: T6, CSNK1D (Homo sapiens, UniProt P48730); test: Liability panel screening by DSF: CSNK1D; assay type: binding; conditions: DSF, 20 µM, n=2; for ΔTm at 20 µM: read-out: Mean ΔTM CSNK1D
T6 construct: made in house
In short: as §1

BRD4 = target: T7, BRD4 (Homo sapiens, UniProt O60885); test: Liability panel screening by DSF: BRD4; assay type: binding; conditions: DSF, 20 µM, n=2; for ΔTm at 20 µM: read-out: Mean ΔTM BRD4
T7 construct: This panel comprised ten highly ligandable kinases and bromodomains; made in house
In short: as §1

AURKA = target: T8, AURKA (Homo sapiens, UniProt O14965); test: Liability panel screening by DSF: AURKA; assay type: binding; conditions: DSF, 20 µM, n=2; for ΔTm at 20 µM: read-out: Mean ΔTM AURKA
T8 construct: made in house
T8 sequence (O14965 1-403): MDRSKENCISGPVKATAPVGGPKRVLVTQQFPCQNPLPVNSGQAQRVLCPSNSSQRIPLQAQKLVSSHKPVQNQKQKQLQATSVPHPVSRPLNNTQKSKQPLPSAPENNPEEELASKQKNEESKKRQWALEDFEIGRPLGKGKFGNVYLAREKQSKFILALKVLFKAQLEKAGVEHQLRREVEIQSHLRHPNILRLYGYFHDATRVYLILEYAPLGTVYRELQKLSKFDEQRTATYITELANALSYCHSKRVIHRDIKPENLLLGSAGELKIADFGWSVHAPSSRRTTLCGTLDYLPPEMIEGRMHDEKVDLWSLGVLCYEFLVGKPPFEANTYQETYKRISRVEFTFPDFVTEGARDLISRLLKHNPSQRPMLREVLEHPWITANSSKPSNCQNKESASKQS
In short: as §1

[3] = tested on: NF-κB activity in HEK293 NF-κB reporter cells; test: NF-kB activity assay (GFP reporter, ionomycin/PMA); assay type: cell-based; conditions: n=3
In short: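 Reporter readout: GFP-expressing cells normalized to confluence, imaged every 90 min across 24 h after ionomycin (100 ng/mL)/PMA (10 ng/mL) stimulation of HEK293 cells pre-treated 4 h with compound (0.1% DMSO); triplicate independent experiments.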

HEK293T cells [4] = test: Cytotoxicity: necrosis induction (red fluorescent dye for permeable plasma membranes); assay type: cell-based; conditions: 3 µM, 24 h, necrotic cell count normalized to 0.1% DMSO, single replicates;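 also: compounds applied in DMEM high glucose with 0.1% FCS and 0.1% DMSO, necrotic HEK293T cells counted by red staining of cells whose plasma membranes had become permeable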
[5] = tested on: ATF6 activity in Hela ATF6 reporter cells; test: Endoplasmic reticulum stress assay (ATF6 Renilla luciferase reporter, tunicamycin); assay type: cell-based; conditions: Homo sapiens, HeLa, 3 µM, single replicates n=1 to n=5; read-out: ER stress [rel. ATF6 activity]
In short: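 ER stress was induced by 100 ng/mL tunicamycin added 4 h after compound (0.1% DMSO) to HeLa ATF6 reporter cells. After 18 h more, Renilla luciferase signal was read and expressed relative to DMSO control, n=5 biological replicates.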

T3 sequence (P49841 whole entry, species assumed): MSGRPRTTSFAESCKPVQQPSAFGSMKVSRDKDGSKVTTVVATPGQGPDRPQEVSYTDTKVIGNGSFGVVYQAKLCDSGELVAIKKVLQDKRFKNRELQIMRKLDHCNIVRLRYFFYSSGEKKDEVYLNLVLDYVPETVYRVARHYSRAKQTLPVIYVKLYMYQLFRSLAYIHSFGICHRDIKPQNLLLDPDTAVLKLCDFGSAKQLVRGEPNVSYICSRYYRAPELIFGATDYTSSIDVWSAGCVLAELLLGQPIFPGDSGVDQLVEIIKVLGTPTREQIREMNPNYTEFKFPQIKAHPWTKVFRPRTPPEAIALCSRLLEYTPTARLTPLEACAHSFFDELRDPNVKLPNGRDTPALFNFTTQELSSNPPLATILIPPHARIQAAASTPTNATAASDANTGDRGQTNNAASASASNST
T6 sequence (P48730 whole entry, species assumed): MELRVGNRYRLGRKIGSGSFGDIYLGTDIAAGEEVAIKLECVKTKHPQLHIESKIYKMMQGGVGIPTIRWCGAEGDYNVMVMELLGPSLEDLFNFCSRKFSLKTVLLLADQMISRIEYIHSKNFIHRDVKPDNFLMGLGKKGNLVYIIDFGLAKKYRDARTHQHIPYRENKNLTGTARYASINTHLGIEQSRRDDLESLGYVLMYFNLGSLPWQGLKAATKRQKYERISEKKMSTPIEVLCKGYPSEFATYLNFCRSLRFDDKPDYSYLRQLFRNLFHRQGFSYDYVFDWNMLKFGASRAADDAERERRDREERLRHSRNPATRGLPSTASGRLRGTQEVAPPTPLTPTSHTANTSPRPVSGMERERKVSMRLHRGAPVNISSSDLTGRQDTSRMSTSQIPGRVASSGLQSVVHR
T2 sequence (P00519 whole entry, species assumed): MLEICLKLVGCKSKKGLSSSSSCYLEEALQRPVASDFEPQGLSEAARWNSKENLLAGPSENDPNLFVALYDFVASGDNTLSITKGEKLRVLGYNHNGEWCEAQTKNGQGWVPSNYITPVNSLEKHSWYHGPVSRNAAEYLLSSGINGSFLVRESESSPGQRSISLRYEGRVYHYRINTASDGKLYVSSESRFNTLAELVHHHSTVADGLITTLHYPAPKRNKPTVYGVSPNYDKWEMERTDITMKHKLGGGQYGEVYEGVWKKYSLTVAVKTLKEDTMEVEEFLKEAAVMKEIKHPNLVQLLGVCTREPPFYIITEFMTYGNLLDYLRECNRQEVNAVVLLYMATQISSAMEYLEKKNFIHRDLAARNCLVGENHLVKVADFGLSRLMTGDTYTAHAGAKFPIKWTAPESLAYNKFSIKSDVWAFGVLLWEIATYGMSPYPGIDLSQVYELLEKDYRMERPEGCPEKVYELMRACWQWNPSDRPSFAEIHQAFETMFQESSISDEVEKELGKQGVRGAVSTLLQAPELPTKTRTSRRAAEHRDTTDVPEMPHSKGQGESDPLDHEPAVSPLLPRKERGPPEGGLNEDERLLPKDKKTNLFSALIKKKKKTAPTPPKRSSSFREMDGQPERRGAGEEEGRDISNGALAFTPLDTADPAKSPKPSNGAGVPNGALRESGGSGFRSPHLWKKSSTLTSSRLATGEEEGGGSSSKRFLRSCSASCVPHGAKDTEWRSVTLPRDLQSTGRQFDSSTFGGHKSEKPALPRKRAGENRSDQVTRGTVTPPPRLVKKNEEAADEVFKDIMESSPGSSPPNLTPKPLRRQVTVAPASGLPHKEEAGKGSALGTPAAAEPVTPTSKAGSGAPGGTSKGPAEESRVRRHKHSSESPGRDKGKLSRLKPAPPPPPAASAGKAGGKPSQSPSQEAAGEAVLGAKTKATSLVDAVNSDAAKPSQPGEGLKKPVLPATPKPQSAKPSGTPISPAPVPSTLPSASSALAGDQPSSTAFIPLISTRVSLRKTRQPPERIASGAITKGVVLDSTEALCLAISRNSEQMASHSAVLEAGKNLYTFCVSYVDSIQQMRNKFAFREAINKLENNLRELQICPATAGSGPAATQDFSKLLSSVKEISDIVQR
T4 sequence (P28482 whole entry, species assumed): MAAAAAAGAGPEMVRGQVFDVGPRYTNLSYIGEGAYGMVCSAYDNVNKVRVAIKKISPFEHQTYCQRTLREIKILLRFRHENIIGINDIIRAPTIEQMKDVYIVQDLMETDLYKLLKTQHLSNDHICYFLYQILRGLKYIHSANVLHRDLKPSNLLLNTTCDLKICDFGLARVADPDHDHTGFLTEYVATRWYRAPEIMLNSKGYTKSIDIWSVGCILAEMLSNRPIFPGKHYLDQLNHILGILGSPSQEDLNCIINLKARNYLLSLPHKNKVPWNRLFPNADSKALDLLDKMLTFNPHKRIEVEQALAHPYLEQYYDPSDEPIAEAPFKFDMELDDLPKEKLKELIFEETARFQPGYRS

SMILES | Mean ΔTM BRPF1 (BRPF1) [K] | Mean ΔTM ABL1 (ABL1) [K] | Mean ΔTM GSK3B (GSK3B) [K] | Growth rate [GR] (HEK293T cells [1]; 3 µM) | Mean ΔTM MAPK1 (MAPK1) [K] | Mean ΔTM CDK2 (CDK2) [K] | Apoptosis induction [AI] (HEK293T cells [2]; 3 µM, DMSO 0.1% = 1.00) | Mean ΔTM CSNK1D (CSNK1D) [K] | Mean ΔTM BRD4 (BRD4) [K] | Mean ΔTM AURKA (AURKA) [K] | ΔTm at 20 µM (BRPF1) [°C] | ΔTm at 20 µM (ABL1) [°C] | ΔTm at 20 µM (GSK3B) [°C] | ΔTm at 20 µM (MAPK1) [°C] | ΔTm at 20 µM (CDK2) [°C] | ΔTm at 20 µM (CSNK1D) [°C] | ΔTm at 20 µM (BRD4) [°C] | ΔTm at 20 µM (AURKA) [°C] | other results
C/C=C1\C(=O)C[C@H]2[C@@H]3CCC4=CC(=O)CC[C@]4(C)[C@H]3CC[C@]12C [Z-Guggulsterone] | -1.36 | 0.07 | -1.05 | 0.73 and 0.88 and 1.06 and 0.96 and 0.82 and 1.15 | 0.47 | -0.30 | 0.63 and 1.35 | 0.63 | -2.62 | -1.78 | – | – | – | – | – | – | – | – | –
COc1ccc(-c2coc3cc(O)cc(O)c3c2=O)cc1 [Biochanin A] | 2.98 | 1.61 | -0.89 | – | 0.55 | 1.69 | – | -0.77 | 0.32 | 1.95 | – | – | – | – | – | – | – | – | Growth rate [GR] (HEK293T cells [1]; 10 µM): 0.50 and 0.90 and 0.87 and 0.72 and 0.82 and 0.61; Apoptosis induction [AI] (HEK293T cells [2]; 10 µM, DMSO 0.1% = 1.00): 0.76 and 0.84
CC#C[C@]1(O)CC[C@H]2[C@@H]3CCC4=CC(=O)CCC4=C3[C@@H](c3ccc(N(C)C)cc3)C[C@@]21C [Mifepristone] | – | – | – | 0.65 and 3.36 and 0.73 and 0.97 and 1.04 and 0.86 and 1.00 and 1.72 and 1.53 and 3.99 | – | – | – | – | – | – | -2.63 | 0.11 | -1.3 | -0.7 | -0.0248 | 0.0217 | -2.39 | -1.55 | Mean NFκB response ([3]; 3 µM, 1,5 h): 3613.33 GFP+-cells/confluence ∙ 1000; Mean NFκB response ([3]; 3 µM, 4,5 h): 4100.00 GFP+-cells/confluence ∙ 1000; Mean NFκB response ([3]; 3 µM, 7,5 h): 7536.67 GFP+-cells/confluence ∙ 1000; Mean NFκB response ([3]; 3 µM, 10,5 h): 17493.33 GFP+-cells/confluence ∙ 1000; Mean NFκB response ([3]; 3 µM, 13,5 h): 25396.67 GFP+-cells/confluence ∙ 1000; Mean NFκB response ([3]; 3 µM, 16,6 h): 31560.00 GFP+-cells/confluence ∙ 1000; Mean NFκB response ([3]; 3 µM, 19,5 h): 36246.67 GFP+-cells/confluence ∙ 1000; Mean NFκB response ([3]; 3 µM, 22,5 h): 39496.67 GFP+-cells/confluence ∙ 1000; Mean NFκB response ([3]; 3 µM, 3 h): 3656.67 GFP+-cells/confluence ∙ 1000; Mean NFκB response ([3]; 3 µM, 6 h): 4860.00 GFP+-cells/confluence ∙ 1000; Mean NFκB response ([3]; 3 µM, 9 h): 12946.67 GFP+-cells/confluence ∙ 1000; Mean NFκB response ([3]; 3 µM, 12 h): 21246.67 GFP+-cells/confluence ∙ 1000; Mean NFκB response ([3]; 3 µM, 15 h): 28726.67 GFP+-cells/confluence ∙ 1000; Mean NFκB response ([3]; 3 µM, 18 h): 34060.00 GFP+-cells/confluence ∙ 1000; Mean NFκB response ([3]; 3 µM, 21 h): 38440.00 GFP+-cells/confluence ∙ 1000; Mean NFκB response ([3]; 3 µM, 24 h): 40840.00 GFP+-cells/confluence ∙ 1000; Necrosis induction [NI] (HEK293T cells [4]): 1.14 and 0.95 and 0.92 and 0.99; Apoptosis induction [AI] (HEK293T cells [2]; 3 µM, HEK293T, 24 h, apoptotic cell count normalized to 0.1% DMSO): 1.09 and 1.02 and 1.10 and 1.15 and 0.56 and 0.53; activity at 3 µM [5]: 99%
CCCC1O[C@@H]2C[C@H]3[C@@H]4CCC5=CC(=O)C=C[C@]5(C)[C@H]4[C@@H](O)C[C@]3(C)[C@]2(C(=O)CO)O1 (stereo partly shown) [Budesonide] | – | – | – | 0.90 and 1.09 and 1.10 and 0.85 and 0.69 and 0.78 | – | – | 1.77 and 1.74 | – | – | – | -1.04 | 0.48 | -0.4 | -0.27 | 0.00668 | -0.0262 | -1.67 | -0.16 | Growth rate [GR] (HEK293T cells [1]; 0.3 µM): 0.59 and 0.92 (3×) and 1.24 and 0.68; Apoptosis induction [AI] (HEK293T cells [2]; 0.3 µM, DMSO 0.1% = 1.00): 1.00 and 1.74; apoptosis induction (HEK293T cells [2]; HEK293T, 24 h, budesonide (3 µM), others at tested concentration): slight apoptosis induction
